“Also recorded” adds a separate entry of the source.
Tests used:
[1] = system: mouse macrophages RAW264.7; assay: effect on proliferation activity of mouse macrophages RAW264.7; assay type: cell-based; conditions: 80 μM; n=3; FIG. 4
[2] = system: acute IBD model induced by 5% DSS; assay: DSS-induced mouse in vivo model of IBD; parameters: species or system C57BL/6 mice; conditions: tail vein 5, 2.5, 1.25 mg/kg, 4 days
Procedure: Female SPF-grade C57BL/6 mice each with an age of 6 to 8 weeks were subjected to adaptive feeding for 3-7 days, and then fed with 5% aqueous solution of DSS in a free water-drinking manner (day0). The original aqueous solution of DSS was replaced with a fresh aqueous solution of DSS every 2 days. After the mice freely drank the aqueous solution of DSS for 7 days (day7), they were fed with fresh purified water. After 4 days of modeling, medicament was administered on the 5th day of modeling. Animals were administered via tail veins with 5 mg/kg, 2.5 mg/kg, and 1.25 mg/kg of the medicament for treatment. The animals were administered with the medicament for 4 continuous days, and then observed for 1 day. The experiments were terminated 24 h after the last administration.
Detection indexes: the weight of each group of animals was observed and recorded every day, and feces of each animal were collected to detect occult blood in the feces. If obvious blood in the feces cannot be determined, an occult blood detection kit was used for confirming the occult blood, and the result was recorded on an experimental record paper and photographed. When the experiments ended, animal serum was collected to detect the expression of IL-6 in the blood. At the same time, the fecal traits, occult blood, and weight change rate of each animal were scored, and the scores were added to give a DAI score for the animal. Colorectal tissue samples of the animals were collected for the subsequent pathological detection and detection of MPO in the tissue.

[3] = system: IL-6 secreted by mouse macrophages RAW264.7 induced by LPS; assay: IL-6 secreted by LPS-induced RAW264.7 macrophages (ELISA); assay type: cell-based; conditions: LPS 100 ng/mL, 24 h; FIG. 5
Procedure: (§1) Effects of myricanol derivatives on the expression of inflammatory factors such as IL-6, TNF-α, PEG2 secreted by a mouse macrophage cell strain RAW 264.7 induced by bacterial lipopolysaccharide (hereinafter referred to as LPS) stimulus: A pre-prepared cell suspension was inoculated in a 96-well plate at 15000 cells/well and 100 μl/well and cultured overnight in an incubator with 5% CO2 at 37° C. At 80% cell confluence, the original culture medium was discarded, and each well was added with 100 μl of prepared drug solution to be tested with a different concentration, cultured for 1 h, and then added with a LPS solution, where the final concentration of LPS in the culture system was 100 ng/mL. Each concentration was set with 3 parallel wells, and a cell control group (no drug and no solvent) and a blank medium control group (no cells, a well for zero adjustment) were set. They were cultured for another 24 h. Cell culture supernatants were aspirated, and an R&D ELISA detection kit (M6000B; MTA00B; VAL601) was used for detecting the expression of the inflammatory factors such as IL-6, TNF-α, and PEG2 in each group. Cell proteins were collected, and a […] method was used for detecting COX-2 protein expression in each group.

[4] = system: COX2 protein expressed by mouse macrophages RAW264.7; assay: COX2 protein expression in LPS-induced RAW264.7 macrophages (blot); assay type: cell-based; conditions: FIG. 8
Procedure: as §1

[5] = system: IBD model induced by 2.5% TNBS; assay: TNBS-induced rat in vivo model of IBD; parameters: species or system SD rats; conditions: 6 days; for injuries of colorectal ulcers (anatomical and pathological HE): FIGS. 20 and 21
Procedure: Test method: female SPF-grade SD rats each with a weight of 180-200 g were subjected to adaptive feeding for 5-7 days, and then started to be modeled. At the time of modeling, the rats were anesthetized, a pre-labeled cat catheter was inserted through the anus into the colon for 8 cm, 250 μL of 2.5% (wt/vol) TNBS solution was slowly injected into the cavity of the colon, the rat was inverted for 1 min, and then the catheter was slowly removed from the intestine. The rat was hold with its head down towards for 1 min and then put back to a cage. Rats in a blank group were administered with the same volume of normal saline. On the second day of modeling, i.e., D1, the medicament was administered through intragastric administration for 6 continuous days.
Detection indexes: the weight of each group of animals was observed and recorded every day, and feces of each animal were collected at the beginning of experiments to detect occult blood in the feces. If obvious blood in the feces cannot be determined, an occult blood detection kit was used for confirming the occult blood, and the result was recorded on an experimental record paper and photographed. After the end of the experiments, the fecal traits, occult blood, and weight change rate of each animal were scored, and the scores were added to give a DAI score for each animal. Colorectal tissue samples of the animals were collected and a wet weight was weighted for the subsequent pathological detection.

[6] = acute toxicity, single oral dose; assay type: in vivo; conditions: both sexes, SD, rat, in vivo, po; single intragastric administration; read-out: MTD (tolerance to acute toxicity of a single dosage)
Text: Trial method: 30 SD rats, half male and half female, were used. The average weight was 160-200 g for female rats and 180-220 g for male rats when grouped. An individual weight should be within ±20% of the average weight. Before the test, animals needed to accommodate to the environment for at least 5 days, and healthy rats (female rats should be not pregnant) were selected as test animals. Matter detected during the accommodation period mainly was: whether the rats were consistent with quality indexes required in the order; detection of general conditions; and whether the weight was within the weight range required by the test. Unqualified abnormal animals were excluded from the test. A single dosage was orally administered to rats at a low, medium, or high dose. […] A control group was set with the oral administration of the same volume of solvent.
The rats were observed about 0-2 h and 4-6 h after each administration. If a toxicity symptom occurs, the rats may be observed more times. (2) Gross anatomical observation: on the 14th day of the test, all surviving rats in each group were dissected and observed, and for administration sites and gross dissection, abnormal organs and tissues which were observed and found to be potentially related to test samples were photographed and recorded. (3) Disposal of dying animals: status of rats and observation time were recorded, and their weights were measured. (4) Disposal of dead animals: the time of death or when a rat was found dead were recorded. The rat was measured for weight before quickly dissected for gross observation and speculated for a cause of death.

[7] = system: PGE2 secreted by mouse macrophages RAW264.7 induced by LPS; assay: PGE2 secreted by LPS-induced RAW264.7 macrophages (ELISA); assay type: cell-based; conditions: for PGE2: LPS alone 1154.90 ± 84.20, control −407.37 ± 57.67
Procedure: as §1

## COc1c2cc(c(O)c1OC)CCCCC(OS(=O)(=O)O)CCc1ccc(O)c-2c1 (stereo not drawn) [compound H, 11-sulfonyloxy myricanol]
[1]
  effect on proliferation activity of mouse macrophages RAW264.7: no significant effects
[2]; FIG. 10 (5 mg/kg vs 5% DSS p<0.01)
  weight change rate (weight loss trend): slowing the weight loss trend
[2]; FIG. 11
  level of IL-6 protein in serum: significant anti-inflammatory effect
[2]; FIG. 12
  DAI score: significant effect of reducing the DAI scores
[2]; FIG. 13
  colorectal pathology (injuries of intestinal mucosa): significant effect of repairing injuries of intestinal mucosa
[2]; FIG. 14
  colorectal MPO (oxidative injuries): a certain effect of improving oxidative injuries
[3]
  inhibition of LPS-induced IL-6 secretion of RAW264.7 cells: very strong effects of inhibiting
[4]
  COX2 protein expression inhibition compared with myricanol: better inhabitation effects than myricanol
  inhibition of protein expression of IBD-related COX2: can inhibit
[5]; 12.5 mg/kg intragastric, no statistical difference, FIG. 15
  colorectal wet weight (edema): trend of reducing the edema
[5]; oral 12.5 mg/kg, FIG. 16
  area of colorectal ulcers: significantly reducing the area of colorectal ulcers
  area of colorectal ulcers, efficacy compared with 5-ASA: slightly better efficacy than 5-aminosalicylic acid (5-ASA)
[5]; oral 12.5 mg/kg, FIG. 17
  colorectal inflammation, efficacy compared with 5-ASA: substantially same efficacy as 5-aminosalicylic acid (5-ASA)
[5]; oral 12.5 mg/kg, FIG. 17, 12.5 mg/kg
  inflammation score of colorectal pathological HE: significantly reducing the level of colorectal inflammation; also recorded: significantly improving the score of colorectal inflammation
[5]; oral 12.5 mg/kg, FIG. 18
  colorectal total injuries, efficacy compared with 5-ASA: substantially same efficacy as 5-aminosalicylic acid (5-ASA)
[5]; oral 12.5 mg/kg, FIG. 18, 12.5 mg/kg
  score of total injuries of colorectal pathological HE: significantly reducing the level of colorectal total injures; also recorded: significantly reducing the degree of overall colorectal injuries
[5]; oral 12.5 mg/kg, FIG. 19
  injury score of colorectal ulcers, efficacy compared with 5-ASA: slightly better efficacy than 5-aminosalicylic acid (5-ASA)
[5]; oral 12.5 mg/kg, FIG. 19, 12.5 mg/kg
  score of ulcerative injuries of colorectal pathological HE: significantly reducing the injury score of colorectal ulcers; also recorded: significantly reducing the severity of injuries
[5]; oral 12.5 mg/kg
  injuries of colorectal ulcers (anatomical and pathological HE): effect of reducing injuries of colorectal ulcers
[5]; oral 25 mg/kg
  injuries of colorectal ulcers (anatomical and pathological HE): effect of reducing injuries of colorectal ulcers
[6]
  MTD at 14 days: > 1500 mg/kg
[7]; FIG. 9
  dose dependence of the activity for inhibiting PGE2: well dose-dependent
[7]; LPS 100 ng/mL, 24 h, FIGS. 7 and 9
  inhibition of PGE2 secreted by RAW264.7 induced by LPS: significant effect of inhibiting PGE2; also recorded: strong ability to inhibit
[7]; LPS + 10 μM
  PGE2: 804.30 ± 18.46 pg/mL
[7]; LPS + 20 μM
  PGE2: 604.66 ± 97.52 pg/mL
[7]; LPS + 30 μM
  PGE2: 448.16 ± 55.26 pg/mL
[7]; LPS + 40 μM
  PGE2: 289.30 ± 109.41 pg/mL
[7]; LPS + 60 μM
  PGE2: -82.01 ± 357.30 pg/mL
[7]; LPS + 80 μM
  PGE2: -338.14 ± 138.40 pg/mL
[7]; dose of 20 μM, FIG. 9
  PGE2 inhibition compared with myricanol: better inhabitation effect than myricanol

Reference: patent US11602514B2, “Medicament having anti-inflammatory bowel disease function, and preparation method therefor and application thereof” (SUZHOU PHARMAVAN CO., LTD, priority 2018, dated 2023)
